Experimental data as given in US8658642B2 (Axikin Pharmaceuticals, Inc., priority 2009, dated 2014).
pKi: −log10 of the molar value.

Target: T1, CCR3 (Homo sapiens, UniProt P51677)
T1 sequence (P51677 1-355): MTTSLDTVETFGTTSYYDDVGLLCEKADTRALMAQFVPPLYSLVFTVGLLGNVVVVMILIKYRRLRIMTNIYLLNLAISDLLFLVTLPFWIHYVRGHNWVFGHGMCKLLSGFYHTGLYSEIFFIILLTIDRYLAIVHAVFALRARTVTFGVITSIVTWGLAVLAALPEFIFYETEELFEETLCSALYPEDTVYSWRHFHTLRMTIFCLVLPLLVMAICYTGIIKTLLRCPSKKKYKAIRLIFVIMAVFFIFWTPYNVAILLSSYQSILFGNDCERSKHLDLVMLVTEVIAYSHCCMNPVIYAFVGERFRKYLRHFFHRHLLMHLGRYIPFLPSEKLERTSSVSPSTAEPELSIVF
Assay: CCR3 receptor binding assay ([125I]-labeled human eotaxin/CCL11 displacement on cells)
Conditions: 0.1 nM [125I]-labeled human eotaxin/CCL11, 2×10^5 cells/well, 60 min at room temperature
Method: CCR3 Receptor Binding Assay
Cells were washed once with PBS and resuspended in a binding buffer (25 mM HEPES pH 7.6, 5 mM MgCl2, 1 mM CaCl2, 0.5% BSA, 0.1% NaN3). […] of cell suspension (2×10^5 cells/well) and 0.1 nM [^125I]-labeled human eotaxin/CCL11 (2000 Ci/mmol specific activity) were mixed in a 96-well U-bottom polypropylene plate, and incubated for 60 min at room temperature for the binding reaction. The cell suspension was then transferred to a filtration plate (#MAFB, Millipore), and washed 3 times with the binding buffer containing 0.5 M NaCl, scintillant added, and the radioactivity was counted on a TopCount (Packard). For the determination of non-specific binding, the cell suspension and [^125I]-labeled human eotaxin/CCL11 were incubated in the presence of 500 nM of unlabeled human eotaxin/CCL11. See, lino et al., “Molecular cloning and functional characterization of cynomolgus monkey (Macaca fascicularis) CC chemokine receptor, CCR3,” Cytokine 2002, 19, 276-286.

| SMILES | pKi |
| --- | --- |
| N#Cc1ccc(Oc2cc(Cl)cc(Cl)c2)c(S(=O)(=O)N2CCN(C(=O)c3ccccc3F)CC2)c1 [Compound 85, 4-(3,5-Dichlorophenoxy)-3-(4-(2-fluorobenzoyl)piperazin-1-ylsulfonyl)benzonitrile] | 5.30 to 6.30 |
| N#Cc1ccc(Oc2cc(Cl)cc(Cl)c2)c(S(=O)(=O)N2CCN(C(=O)c3cccc(F)c3)CC2)c1 [Compound 86, 4-(3,5-Dichlorophenoxy)-3-(4-(3-fluorobenzoyl)piperazin-1-ylsulfonyl)benzonitrile] | < 5.30 |
| N#Cc1ccc(Oc2cc(Cl)cc(Cl)c2)c(S(=O)(=O)N2CCN(C(=O)c3ccc(F)cc3)CC2)c1 [Compound 87, 4-(3,5-Dichlorophenoxy)-3-(4-(4-fluorobenzoyl)piperazin-1-ylsulfonyl)benzonitrile] | < 5.30 |
| Cc1cc(C)cc(Sc2ccc(C#N)cc2S(=O)(=O)N2CCN(C(=O)c3ccc(C(F)(F)F)cc3)CC2)c1 [Compound 88, 4-(3,5-Dimethylphenylthio)-3-(4-(4-(trifluoromethyl)benzoyl)piperazin-1-ylsulfonyl)benzonitrile] | < 5.30 |
| Cc1cc(C)cc(Sc2ccc(C#N)cc2S(=O)(=O)N2CCN(C(=O)c3ccccc3)CC2)c1 [Compound 89, 3-(4-Benzoylpiperazin-1-ylsulfonyl)-4-(3,5-dimethylphenylthio)benzonitrile] | 6.30 to 7.30 |
| Cc1ccc(C(=O)N2CCN(S(=O)(=O)c3cc(C#N)ccc3Sc3cc(C)cc(C)c3)CC2)cc1 [Compound 90, 4-(3,5-Dimethylphenylthio)-3-(4-(4-methylbenzoyl)piperazin-1-ylsulfonyl)benzonitrile] | 6.30 to 7.30 |
| Cc1cc(C)cc(Sc2ccc(C#N)cc2S(=O)(=O)N2CCN(C(=O)c3cccc(C)c3)CC2)c1 [Compound 91, 4-(3,5-Dimethylphenylthio)-3-(4-(3-methylbenzoyl)piperazin-1-ylsulfonyl)benzonitrile] | 6.30 to 7.30 |
| Cc1cc(C)cc(Sc2ccc(C#N)cc2S(=O)(=O)N2CCN(C(=O)c3ccccc3C)CC2)c1 [Compound 92, 4-(3,5-Dimethylphenylthio)-3-(4-(2-methylbenzoyl)piperazin-1-ylsulfonyl)benzonitrile] | < 5.30 |
| Cc1cc(C)cc(Sc2ccc(C#N)cc2S(=O)(=O)N2CCN(C(=O)Nc3cccc(F)c3)CC2)c1 [Compound 93] | 6.30 to 7.30 |
| CC(C)NC(=S)N1CCN(S(=O)(=O)c2cc(C#N)ccc2Oc2cc(Cl)cc(Cl)c2)CC1 [Compound 95] | 6.30 to 7.30 |
| N#Cc1ccc(Oc2cc(Cl)cc(Cl)c2)c(S(=O)(=O)N2CCN(C(=O)Oc3ccccc3)CC2)c1 [Compound 96] | 5.30 to 6.30 |
| N#Cc1ccc(Oc2cc(Cl)cc(Cl)c2)c(S(=O)(=O)N2CCN(C(=O)NCc3ccccc3)CC2)c1 [Compound 97] | 6.30 to 7.30 |
| N#Cc1ccc(Sc2cc(Cl)cc(Cl)c2)c(S(=O)(=O)N2CCN(C(=O)c3ccc(C(F)(F)F)cc3)CC2)c1 [Compound 98] | < 5.30 |
| N#Cc1ccc(Sc2cc(Cl)cc(Cl)c2)c(S(=O)(=O)N2CCN(C(=O)c3ccccc3)CC2)c1 [Compound 99] | < 5.30 |
| CC(C)NC(=O)N1CCN(S(=O)(=O)c2cc(C#N)ccc2Sc2cc(Cl)cc(Cl)c2)CC1 [Compound 100] | < 5.30 |
| CC(C)NC(=S)N1CCN(S(=O)(=O)c2cc(C#N)ccc2Sc2cc(Cl)cc(Cl)c2)CC1 [Compound 101] | < 5.30 |
| Cc1cc(C)cc(Oc2ccc(C#N)cc2S(=O)(=O)N2CCN(C(=S)NC(C)C)CC2)c1 [Compound 103] | < 5.30 |
| Cc1ccc(C(=O)N2CCN(S(=O)(=O)c3cc(C#N)ccc3Sc3cc(Cl)cc(Cl)c3)CC2)cc1 [Compound 104] | < 5.30 |
| Cc1cccc(C(=O)N2CCN(S(=O)(=O)c3cc(C#N)ccc3Sc3cc(Cl)cc(Cl)c3)CC2)c1 [Compound 105] | < 5.30 |

| SMILES | pKi |
| --- | --- |
| Cc1ccccc1C(=O)N1CCN(S(=O)(=O)c2cc(C#N)ccc2Sc2cc(Cl)cc(Cl)c2)CC1 [Compound 106] | < 5.30 |
| CC(=O)N1CCN(S(=O)(=O)c2cc(C#N)ccc2Oc2cc(C)cc(C)c2)CC1 [Compound 107] | < 5.30 |
| Cc1cc(C)cc(Oc2ccc(C#N)cc2S(=O)(=O)N2CCN(C(=O)C(C)C)CC2)c1 [Compound 108] | < 5.30 |
| CC(=O)N1CCN(S(=O)(=O)c2cc(C#N)ccc2Oc2cc(Cl)cc(Cl)c2)CC1 [Compound 109] | ≥ 7.30 |
| CC(C)C(=O)N1CCN(S(=O)(=O)c2cc(C#N)ccc2Oc2cc(Cl)cc(Cl)c2)CC1 [Compound 110] | ≥ 7.30 |
| CC(=O)N1CCN(S(=O)(=O)c2cc(C#N)ccc2Sc2cc(Cl)cc(Cl)c2)CC1 [Compound 111] | ≥ 7.30 |
| CC(C)C(=O)N1CCN(S(=O)(=O)c2cc(C#N)ccc2Sc2cc(Cl)cc(Cl)c2)CC1 [Compound 112] | < 5.30 |
| N#Cc1ccc(Sc2cc(Cl)cc(Cl)c2)c(S(=O)(=O)N2CCN(C(=O)c3cccc(F)c3)CC2)c1 [Compound 113] | < 5.30 |
| Cc1ccc(C(=O)N2CCN(S(=O)(=O)c3cc(C#N)ccc3Oc3cc(C)cc(C)c3)CC2)cc1 [Compound 114] | 5.30 to 6.30 |
| Cc1ccc(NC(=O)N2CCN(S(=O)(=O)c3cc(C#N)ccc3Oc3cc(C)cc(C)c3)CC2)cc1 [Compound 115] | < 5.30 |
| Cc1cc(C)cc(Oc2ccc(C#N)cc2S(=O)(=O)N2CCN(C(=O)Nc3ccc(C#N)cc3)CC2)c1 [Compound 116] | < 5.30 |
| COc1ccc(C(=O)N2CCN(S(=O)(=O)c3cc(C#N)ccc3Oc3cc(C)cc(C)c3)CC2)cc1 [Compound 117] | < 5.30 |
| COc1ccc(NC(=O)N2CCN(S(=O)(=O)c3cc(C#N)ccc3Oc3cc(C)cc(C)c3)CC2)cc1 [Compound 118] | < 5.30 |
| Cc1cc(C)cc(Oc2ccc(C#N)cc2S(=O)(=O)N2CCN(C(=O)Nc3ccc([N+](=O)[O-])cc3)CC2)c1 [Compound 119] | < 5.30 |
| CCN(CC)C(=O)N1CCN(S(=O)(=O)c2cc(C#N)ccc2Oc2cc(C)cc(C)c2)CC1 [Compound 120] | < 5.30 |
| Cc1cc(C)cc(Oc2ccc(C#N)cc2S(=O)(=O)N2CCN(C(=S)N(C)C)CC2)c1 [Compound 121] | < 5.30 |
| N#Cc1ccc(Oc2cc(Cl)cc(Cl)c2)c(S(=O)(=O)N2CCN(C(=O)c3ccco3)CC2)c1 [Compound 122] | < 5.30 |
| N#Cc1ccc(Oc2cc(Cl)cc(Cl)c2)c(S(=O)(=O)N2CCN(C(=O)c3cccs3)CC2)c1 [Compound 123] | < 5.30 |
| N#Cc1ccc(Oc2cc(Cl)cc(Cl)c2)c(S(=O)(=O)N2CCN(C(=O)c3ccno3)CC2)c1 [Compound 124] | 6.30 to 7.30 |

| SMILES | pKi |
| --- | --- |
| N#Cc1ccc(Oc2cc(Cl)cc(Cl)c2)c(S(=O)(=O)N2CCN(C(N)=O)CC2)c1 [Compound 125] | ≥ 7.30 |
| Cc1cc(C(=O)N2CCN(S(=O)(=O)c3cc(C#N)ccc3Oc3cc(Cl)cc(Cl)c3)CC2)n(C)n1 [Compound 126] | < 5.30 |
| Cc1nnsc1C(=O)N1CCN(S(=O)(=O)c2cc(C#N)ccc2Oc2cc(Cl)cc(Cl)c2)CC1 [Compound 127] | ≥ 7.30 |
| N#Cc1ccc(Oc2cc(Cl)cc(Cl)c2)c(S(=O)(=O)N2CCN(C(=O)c3ccccn3)CC2)c1 [Compound 128] | 5.30 to 6.30 |
| N#Cc1ccc(Oc2cc(Cl)cc(Cl)c2)c(S(=O)(=O)N2CCN(C(=O)c3cc4ccccc4o3)CC2)c1 [Compound 129] | < 5.30 |
| N#Cc1ccc(Oc2cc(Cl)cc(Cl)c2)c(S(=O)(=O)N2CCN(C(=O)c3ccc4nonc4c3)CC2)c1 [Compound 130] | < 5.30 |
| N#Cc1ccc(Oc2cc(Cl)cc(Cl)c2)c(S(=O)(=O)N2CCN(C(=O)c3cc4ccccc4s3)CC2)c1 [Compound 131] | < 5.30 |
| N#Cc1ccc(Oc2cc(Cl)cc(Cl)c2)c(S(=O)(=O)N2CCN(C(=O)c3nc4ccccc4s3)CC2)c1 [Compound 132] | < 5.30 |
| N#Cc1ccc(Oc2cc(Cl)cc(Cl)c2)c(S(=O)(=O)N2CCN(C(=O)c3cnccn3)CC2)c1 [Compound 133] | 6.30 to 7.30 |
| N#Cc1ccc(Oc2cc(Cl)cc(Cl)c2)c(S(=O)(=O)N2CCN(C(=O)N3CCOCC3)CC2)c1 [Compound 134] | 6.30 to 7.30 |
| N#Cc1ccc(Oc2cc(Cl)cc(Cl)c2)c(S(=O)(=O)N2CCN(C(=O)NCc3ccco3)CC2)c1 [Compound 135] | ≥ 7.30 |
| N#Cc1ccc(Oc2cc(Cl)cc(Cl)c2)c(S(=O)(=O)N2CCN(C(=S)NCc3ccco3)CC2)c1 [Compound 136] | ≥ 7.30 |
| N#Cc1ccc(Oc2cc(Cl)cc(Cl)c2)c(S(=O)(=O)N2CCN(C(=S)NCCN3CCOCC3)CC2)c1 [Compound 137] | 6.30 to 7.30 |
| Cc1ccsc1C(=O)N1CCN(S(=O)(=O)c2cc(C#N)ccc2Oc2cc(Cl)cc(Cl)c2)CC1 [Compound 138] | 6.30 to 7.30 |
| Cc1nnsc1C(=O)N1CCN(S(=O)(=O)c2cc(C#N)ccc2Sc2cc(Cl)cc(Cl)c2)CC1 [Compound 139] | ≥ 7.30 |
| CC(=O)c1cccc(NC(=O)N2CCN(S(=O)(=O)c3cc(C#N)ccc3Oc3cc(Cl)cc(Cl)c3)CC2)c1 [Compound 140] | ≥ 7.30 |
| N#Cc1ccc(Oc2cc(Cl)cc(Cl)c2)c(S(=O)(=O)N2CCN(C(=O)CCCCl)CC2)c1 [Compound 141] | ≥ 7.30 |
| N#Cc1ccc(Oc2cc(Cl)cc(Cl)c2)c(S(=O)(=O)N2CCN(C(=O)NCCCl)CC2)c1 [Compound 142] | 6.30 to 7.30 |
